Test results: PMC12930396, “Positive modulators of N-methyl-D-aspartate receptor: structure–activity relationship study on steroidal C-17 and C-20 oxime ethers” (RSC Advances, 2026)
≈ marks a conversion by molar mass, not a printed value. Entries after “also recorded” stand apart in the source; their conditions may differ. Structures can show the parent of a compound that is named as a salt. Where two headings read alike, the source gives them in different places.

Tests used:
Stability in rat plasma = assay type: in vitro ADME
Method: Compounds were prepared as 1.6 mg mL^−1 stock solutions in methanol. Then, 20 µL of stock solution was added to 1000 µL of rat plasma (BioIVT, Cat. No. RAT00PLLH-0102307), maintained at 37 °C. Aliquots (50 µL) withdrawn at 0, 8, and 24 h were analyzed by HPLC. An aliquot of plasma was extracted with methanol (450 µL) containing an internal standard, and the solution was vortexed (20 s) and centrifuged at 13 500 rpm for 10 min. The supernatant was transferred to an autosampler vial, and 10 µL was injected into an LC-MS system. The samples were analyzed using an Agilent 6230 TOF LC/MS. Samples were separated on a Waters ACQUITY UPLC CSH Phenyl-Hexyl column (100 × 2.1, 130 Å, 1.7 µm) at a flow rate of 0.3 mL min^−1. […]. The temperature, the flow rate of the nitrogen drying gas, the pressure of the nitrogen nebulizing gas, and the flow rate of the sheath gas were set at 325 °C, 10 L min^−1, 40 psi, […], and 11 L min^−1, respectively. Results are represented as a percentage of the compound remaining in spiked plasma.

[1] = Thermodynamic solubility in PBS pH 7.4; assay type: physicochemical; conditions: 20 °C, pH 7.4, aqueous buffer, thermodynamic from solid
Method: The reference samples were prepared as follows: a weight corresponding to 2.5 µmol was dissolved in 250 µL of DMSO, resulting in a concentration of 10 mM stock solution. Each calibration level standard was prepared by diluting the stock solution in a mixture of PBS and acetonitrile (50 : 50 v/v). The samples for testing were prepared as follows: the volume of 1000 µL of PBS was added to the testing tube containing a weight of sample corresponding to 0.4 mM. The mixture was shaken at 1000 rpm at 20 °C for 24 h. The mixture was then filtered using a syringe polypropylene 0.45 µm filter. Samples and calibration standards are prepared using an automated system of a robotic arm (PAL-RTC, Switzerland). Then, the sample was analysed on chromatographic system (Vanquish UHPLC, Thermo Fisher Scientific, Germany) connected to the diode array detector and consequently to the charged aerosol detector (both Vanquish, Thermo Fisher Scientific, Germany), Thermo Scientific Accucore C8 (100 × 3 mm; 2.6 µm) column, using gradient elution with acetonitrile/methanol/5 mM formate buffer (pH = 3.00); flow: 1.0 cm^3 min^−1; column temperature: 40 °C; CAD temperature: 30 °C; sample volume: 5 mm^3.

NMDA receptors = conditions: C-17 ketone steroids; cited from earlier work
GluN1/GluN2B receptors = target: T1, GluN1/GluN2B receptors (Rattus norvegicus, UniProt P35439+Q00960); assay: Patch-clamp: modulation of glutamate-induced currents of recombinant GluN1/GluN2B receptors expressed in HEK293 cells; assay type: cell-based; conditions: for h ± SEM (apparent Hill coefficient): concentration-response fit; for h ± SEM (apparent Hill coefficient) / EC50 / Emax: mean ± SEM; for EC50: half-maximal potentiation of currents evoked by 1 µM glutamate; for EC50 / Emax: HEK293; for Emax: maximal potentiation of currents evoked by 1 µM glutamate and 30 µM glycine
T1 construct: expressed in transfected cells; host or cells: HEK293 cells (ATCC No. CRL-1573)
T1 sequence (Q00960 27-1482, other chains not shown): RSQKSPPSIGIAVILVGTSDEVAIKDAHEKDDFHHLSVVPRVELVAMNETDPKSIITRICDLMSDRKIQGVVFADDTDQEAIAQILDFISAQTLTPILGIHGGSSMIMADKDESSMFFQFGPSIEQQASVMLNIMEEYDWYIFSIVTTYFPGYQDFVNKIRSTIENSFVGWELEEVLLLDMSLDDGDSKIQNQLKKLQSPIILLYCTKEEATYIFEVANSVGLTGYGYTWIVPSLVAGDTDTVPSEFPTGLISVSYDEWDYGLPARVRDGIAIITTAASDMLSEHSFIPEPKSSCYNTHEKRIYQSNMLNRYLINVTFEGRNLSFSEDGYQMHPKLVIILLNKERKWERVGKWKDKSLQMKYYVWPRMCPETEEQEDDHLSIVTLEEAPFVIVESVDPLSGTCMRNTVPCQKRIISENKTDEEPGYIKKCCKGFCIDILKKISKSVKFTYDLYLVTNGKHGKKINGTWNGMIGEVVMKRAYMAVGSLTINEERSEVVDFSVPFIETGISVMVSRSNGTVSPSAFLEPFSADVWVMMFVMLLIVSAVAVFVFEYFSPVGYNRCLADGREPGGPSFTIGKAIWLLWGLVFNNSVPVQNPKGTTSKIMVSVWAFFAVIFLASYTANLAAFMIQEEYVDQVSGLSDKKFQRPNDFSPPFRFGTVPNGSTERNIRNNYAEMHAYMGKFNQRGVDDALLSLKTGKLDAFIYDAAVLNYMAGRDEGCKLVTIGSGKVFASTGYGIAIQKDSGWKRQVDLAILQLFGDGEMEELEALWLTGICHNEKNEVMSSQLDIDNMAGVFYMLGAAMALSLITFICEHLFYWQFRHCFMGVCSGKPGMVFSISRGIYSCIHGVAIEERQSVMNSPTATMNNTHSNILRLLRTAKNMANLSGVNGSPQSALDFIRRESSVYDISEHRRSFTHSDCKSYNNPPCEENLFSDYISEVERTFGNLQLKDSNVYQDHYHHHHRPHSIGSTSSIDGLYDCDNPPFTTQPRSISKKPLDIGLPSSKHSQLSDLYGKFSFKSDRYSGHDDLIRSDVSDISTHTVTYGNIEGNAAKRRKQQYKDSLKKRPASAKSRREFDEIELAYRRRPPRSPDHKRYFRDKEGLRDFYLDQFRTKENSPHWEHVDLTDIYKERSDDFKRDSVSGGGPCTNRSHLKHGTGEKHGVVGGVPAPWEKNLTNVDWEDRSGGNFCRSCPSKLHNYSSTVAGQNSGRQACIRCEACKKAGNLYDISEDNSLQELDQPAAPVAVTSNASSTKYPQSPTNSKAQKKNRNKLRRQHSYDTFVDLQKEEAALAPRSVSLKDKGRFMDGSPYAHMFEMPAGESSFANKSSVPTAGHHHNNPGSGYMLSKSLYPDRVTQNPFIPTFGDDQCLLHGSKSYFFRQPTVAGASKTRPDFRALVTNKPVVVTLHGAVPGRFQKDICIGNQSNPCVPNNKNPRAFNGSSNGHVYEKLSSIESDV
Method: To investigate the effect of compounds 11–23 on the activity of NMDARs, electrophysiological measurements were performed on HEK293 cells that were co-transfected with cDNAs containing genes encoding for the rat GluN1-1a and GluN2B subunits. The degree of modulation (E; potentiation/inhibition) for the newly synthesized compounds was determined using the following formula: [drawing 1] where Ie is the value of the current amplitude during glutamate and compound coapplication, and Ia is the current amplitude value for glutamate application. […] The results are presented as mean ± standard error of the mean (SEM), with n equal to the number of independent measurements. One-way analysis of variance (ANOVA) was used for multiple comparisons (unless otherwise stated, a value of P ≤ 0.05 was used for the determination of significance).
We have evaluated the relationship between oxime derivatives 11–23 and their modulatory effect on recombinant GluN1/GluN2B receptors. Due to the […] effect of neurosteroid-based PAMs at NMDARs[20,44]
HEK293 cells (American Type Culture Collection, ATCC No. CRL-1573, Rockville, MD, USA) were cultured in Opti-MEM I (Invitrogen, Carlsbad, CA, USA) supplemented with 5% fetal bovine serum (FBS; PAN Biotech, Aidenbach, Germany) at 37 °C in 5% CO2. 24 h before transfection, HEK293 cells were plated in 24-well plates at a density of 2 × 10^5 cells per well. The next day, the cells were transfected with cDNA encoding rat GluN1-1a (GluN1; GenBank accession number U08261)[56] and GluN2B (GenBank accession number M91562)[57] subunits (in the pCI-neo expression vector), along with green fluorescent protein (GFP; in the pQBI 25 vector, Takara, Tokyo, Japan). Briefly, equal amounts (200 ng) of cDNAs encoding GluN1-1a, GluN2B, and GFP were mixed with 0.6 µl of Matra-A reagent (IBA, Gottingen, Germany) in 50 µL of Opti-MEM I and added to confluent HEK293 cells cultured in 24-well plates. After trypsinization, the cells were resuspended in Opti-MEM I containing 1% FBS, supplemented with 20 mM MgCl2, 1 mM D,L-2-amino-5-phosphonovaleric acid, 3 mM kynurenic acid, and 1 µM ketamine, and plated on 30 mm glass coverslips coated with collagen and poly-L-lysine. Transfected cells were identified by GFP epifluorescence. Electrophysiology experiments were performed 24–48 h after transfection.
Whole-cell current recordings, voltage-clamped at a holding potential of −60 mV, were performed at room temperature using a patch-clamp amplifier (Axopatch 200B; Molecular Devices, Sunnyvale, CA, USA) after capacitance and series resistance (<10 MΩ) compensation (80–90%). NMDAR current responses were low-pass filtered at 2 kHz, digitally sampled at 5 kHz, and analysed using pClamp software (version 10.6; Molecular Devices). Patch pipettes (3–5 MΩ), pulled from borosilicate glass, were filled with an intracellular solution (ICS) containing (in mM): 15 CsCl, 10 BAPTA, 3 MgCl2, 1 CaCl2, 120 gluconic acid, 10 HEPES, and 2 ATP-Mg salt (pH adjusted to 7.2 with CsOH). The extracellular solution (ECS) contained (in mM): 160 NaCl, 2.5 KCl, 0.2 EDTA, 10 glucose, 10 HEPES, and 0.7 CaCl2 (pH adjusted to 7.3 with NaOH). NMDAR responses were induced by 1 µM glutamate and 30 µM glycine. 1% DMSO was present in all control and testing solutions. Solution applications were performed using a microprocessor-controlled multibarrel fast-perfusion system with a solution exchange rate around the cells of ∼10 ms.[58]

in vitro [2] = conditions: for PAMPA permeability Retention (mass retention): 5 h, 100 µM; for PAMPA permeability Retention (mass retention) / Papp at 5 h, 100 µM: pH 7.4; for Papp at 5 h, 100 µM: PAMPA
Method: Permeability was quantified using permeability coefficients (Pe) and mass retention, the latter representing the proportion of compound retained in the membrane.
Permeation experiments were conducted in polystyrene 96-well filter plates with PVDF membrane pre-coated with structured layers of phospholipids (Corning Gentest™) according to the manufacturer's instructions. Briefly, the plate was warmed to room temperature, and meanwhile, the solutions of the compounds were diluted from 10 mM DMSO stocks to TRIS–HCl buffer pH 7.4 to reach a 100 µM final concentration. The DMSO concentration in the samples was 1%. Then, 300 µL of these solutions were transferred into the donor (receiver) plate wells, and 200 µL of the (TRIS) buffer was added to the acceptor (filter) plate wells. The filter plate and receiver plate were assembled and incubated for 5 h on an orbital shaker (300 rpm). After this, the concentration of the tested substances in both the donor and acceptor compartments was determined with use of LC/MS. Liquid chromatography was performed using an ExionLC AD pump and autosampler from Sciex (Framingham, MA, USA). […] The mobile phase flow rate was 300 µL min^−1. The column Synergi Fusion-RP from Phenomenex (Torrance, CA, USA) was used and was kept at 40 °C during the analysis.

in vitro [3] = conditions: for half-life at 10 µM: rat, microsomes
Method: The reactions were terminated by the addition of four volumes of ice-cold methanol, mixed vigorously, and left at −20 °C for 1h. After that, the samples were centrifuged and the supernatants were analysed by means of ECHO-MS® System (Sciex, Framingham, MA, USA). Zero time points were prepared by adding ice-cold methanol to the mixture of the compound with cofactors before the addition of microsomes. […] Intrinsic clearance (CLint) was calculated using the following formula: [drawing 4] where V is the incubation volume per milligram of microsomal protein (µL mg^−1) and t1/2 is the microsomal half-life.

[4] = PBS, PBS pH 7.4, 20 °C, 24 h, read-out: Solubility PBS, pH 7.4 (thermodynamic)
[5] = Solubility PBS, pH 7.4 (thermodynamic)

SMILES	Stability in rat plasma (% remaining) 8 h (Stability in rat plasma; rat, plasma) [% remaining]	Stability in rat plasma (% remaining) 24 h (Stability in rat plasma; rat, plasma) [% remaining]	solubility thermodynamic at 24 h [1, 5] [µM]	h ± SEM (apparent Hill coefficient) (GluN1/GluN2B receptors)	EC50 (GluN1/GluN2B receptors) [µM]	Emax (GluN1/GluN2B receptors) [%]	PAMPA permeability Retention (mass retention) (in vitro [2]) [%]	Papp at 5 h, 100 µM (in vitro [2]) [×10⁻⁶ cm/s]	half-life at 10 µM (in vitro [3]; pH 7.4) [min]	other results
CC(=O)[C@H]1CC[C@H]2[C@@H]3CC=C4C[C@@H](OC(=O)CCCC(=O)O)CC[C@]4(C)[C@H]3CC[C@]12C [20-Oxo-PE-hGlu, 20-Oxo-pregn-5-en-3β-yl hemiglutarate, reference compound]										Stability in rat plasma (% remaining) 8 h (Stability in rat plasma; rat plasma, 37 °C): 44 ± 3 % remaining; Stability in rat plasma (% remaining) 24 h (Stability in rat plasma; rat plasma, 37 °C): 21 ± 1 % remaining; solubility thermodynamic at 24 h [1, 4]: 86 ± 1 µM (≈ 37 µg/mL)
C[C@]12CC[C@H](OS(=O)(=O)O)CC1=CCC1C2CC[C@]2(C)C(=O)CCC12 (stereo partly shown) [dehydroepiandrosterone sulfate]										Activity at NMDARs (NMDA receptors): inactive
CC(=O)[C@H]1CC[C@H]2[C@@H]3CC=C4C[C@@H](OC(=O)CCCCC(=O)O)CC[C@]4(C)[C@H]3CC[C@]12C [20-Oxo-PE-hAdi, 20-Oxo-pregn-5-en-3β-yl hemiadipate, reference compound]	11 ± 0	2 ± 0	20 ± 2 (≈ 8.89 µg/mL)							
C/C(=N\O)[C@H]1CCC2C3CC=C4C[C@@H](OC(=O)CCCC(=O)O)CC[C@]4(C)C3CC[C@@]21C (stereo partly drawn) [Compound 11, 20-Oxo-pregn-5-en-3β-yl 3-hemiglutarate 20-oxime]	69.9 ± 6.0	58.1 ± 8.1		1.5 ± 0.1	7.9 ± 2.1	270 ± 35	87	155	58.6 ± 18.7	PAMPA permeability (in vitro [2]): comparable to or greater than that of verapamil; Stability in rat microsomes Clint (in vitro [3]): 23.6 µlmin^−1mg
CC(=O)[C@H]1CC[C@H]2[C@@H]3CC=C4C[C@@H](OC(=O)CCC(=O)O)CC[C@]4(C)[C@H]3CC[C@]12C [20-Oxo-PE-hSuc, 20-Oxo-pregn-5-en-3β-yl hemisuccinate, reference compound]										Stability in rat plasma (% remaining) 8 h (Stability in rat plasma; rat plasma, 37 °C): 69 ± 1 % remaining; Stability in rat plasma (% remaining) 24 h (Stability in rat plasma; rat plasma, 37 °C): 50 ± 2 % remaining; solubility thermodynamic at 24 h [1, 4]: 277 ± 1 µM
CCO/N=C(\C)[C@H]1CCC2C3CC=C4C[C@@H](OC(=O)CCC(=O)O)CC[C@]4(C)C3CC[C@@]21C (stereo partly drawn) [Compound 22, 20-Oxo-pregn-5-en-3β-yl hemisuccinate O-ethyloxime]			22 ± 1	1.3 ± 0.1	7 ± 1.1	340 ± 22	96	1.58	52.6 ± 3.7	Stability in rat microsomes Clint (in vitro [3]): 26.3 µlmin^−1mg
CCO/N=C(\C)[C@H]1CCC2C3CC=C4C[C@@H](OC(=O)CCCCC(=O)O)CC[C@]4(C)C3CC[C@@]21C (stereo partly drawn) [Compound 23, 20-Oxo-pregn-5-en-3β-yl hemiadipate O-ethyloxime]			21 ± 1 (≈ 10.2 µg/mL)	1.7 ± 0.1	7.5 ± 1.1	451 ± 79	100		> 60	Metabolic stability in rat liver microsomes (in vitro [3]; 1 h, 10 µM, pH 7.4): no detectable metabolism after 60 min
CCO/N=C1\CCC2C3CC=C4C[C@@H](OC(=O)CCCC(=O)O)CC[C@]4(C)C3CC[C@]12C (stereo partly drawn) [Compound 15, 17-Oxo-androst-5-en-3β-yl hemiglutarate O-ethyloxime]	82.1 ± 7.5	69.9 ± 5.0		1.5 ± 0.1	22.7 ± 3.1	441 ± 76	80		> 60	
C[C@]12CC[C@H](OC(=O)CCCC(=O)O)CC1=CCC1C2CC[C@]2(C)/C(=N/O)CCC12 (stereo partly drawn) [Compound 14, 17-Oxo-androst-5-en-3β-yl 3-hemiglutarate 17-oxime]	61.1 ± 1.6	56.3 ± 2.5					17	26.3	> 60	Modulatory profile at NMDARs (GluN1/GluN2B receptors; GluN1/GluN2B in HEK293): not identified as PAMs; also recorded: lost its PAM-activity; PAMPA permeability (in vitro [2]): moderate permeability
